Measurements taken from publication PMC8422859, “A Novel Oral Arginase 1/2 Inhibitor Enhances the Antitumor Effect of PD-1 Inhibition in Murine Experimental Gliomas by Altering the Immunosuppressive Environment” (Frontiers in Oncology, 2021).

Columns and labels:
[1] = system: L-arginine (substrate of arginase); assay: L-arginine concentration in brain and plasma by LC-MS; type: in vivo, mouse; details: GL261-bearing mice, 50 mg/kg oral twice a day, day 14, 2 h after last dose
Procedure: Blood plasma, as well as the brain samples (from control and treated animals), were prepared for liquid chromatography coupled with mass spectrometry (LC-MS) by homogenization in 5% trichloroacetic acid (TCA) and the concentration of L-arginine – the substrate of arginase – was determined. In the urea cycle, arginase cleaves arginine to produce urea and ornithine. Ornithine reacts with carbamoyl phosphate to form citrulline. The brain homogenates prepared for arginine measurements, as well as plasma samples were also analyzed by LC-MS to determine the concentration of the drug, which was administered to animals 2 h before the euthanasia.

[2] = system: GL261 tdTomato+luc+ glioma; assay: GL261 intracranial glioma growth (tumor volume, bioluminescence); type: in vivo, mouse
Procedure: Mice were deeply anesthetized with isoflurane. After identifying the sagittal and coronal sutures on the right side, a hole was drilled at the following coordinates: 1 mm anterior and 1,5 mm lateral from bregma. GL261 tdTomato^+luc^+ glioma cells (80,000 in 1 μL of DMEM) were stereotactically injected with a Hamilton syringe to the right striatum of the mouse 3 mm deep from the surface of the brain. The skin incision was closed and mice were monitored until they completely recovered from anesthesia. Mice were randomly allocated to the study groups. The animals were weighed weekly and observed daily for clinical symptoms and evidence of toxicity by evaluating their eating, mobility, weight loss, hair loss, and hunched posture. OAT-1746 was administered by oral gavage at 50 mg/kg twice a day from day 1 after implantation. Anti-PD-1 antibody (Biolegend, GoInVivo™ Purified anti-mouse CD279) was injected intraperitoneally (i.p.) at a dose of 2.5 mg/kg on days 8, 10, 12, 14 post-implantation. Control groups received vehicle (saline) twice a day by gavage. Animals were euthanized when they lost more than 20% of body weight compared to day 0.
To monitor tumor growth, mice were injected i.p. with 150 mg/kg body weight luciferin (D-luciferin sodium salt BC218 Synchem) and left for 8 min. Then, the animals were anesthetized with 3% isoflurane and transferred to the X-treme Imaging System (Bruker, Germany). At 10 min after the D-luciferin injection, a photonic emission was imaged. Tumors were visualized at days 14, 21 and 28 after implantation and bioluminescent images were quantified as photon/sec/mm^2. […]
The animals were sacrificed on the day 21 after GL261 tdTomato^+luc^+ cell implantation and perfused with 4% paraformaldehyde in PBS. […] To quantify the tumor size, sections were stained with toluidine blue, and images were acquired using a Leica DM4000B microscope (Leica Microsystems, Wetzlar, Germany). Tumor areas were measured using ImageJ software (NIH, Bethesda, MD, USA) on every sixth brain slice, and tumor volumes were calculated as previously described ([26]).

[3] = system: tumor-infiltrating immune cells in GL261 gliomas; assay: Immune cells in GL261 gliomas (immunohistochemistry, flow cytometry); type: in vivo, mouse
Procedure: The animals were sacrificed on the day 21 after GL261 tdTomato^+luc^+ cell implantation and perfused with 4% paraformaldehyde in PBS. Brains were removed, post-fixed for 48 h in the same fixative solution and placed in 30% sucrose in PBS at 4°C until the tissue sunk to the bottom of the flask. Tissue was frozen in Tissue Freezing Medium (Jung; Nussloch, Germany) and cut in 12 µm coronal sections using a cryostat. The slides were dried at room temperature for 2 h after being transferred from the -80°C storage. Cryosections were blocked in PBS containing 10% donkey serum and 0.1% Triton X-100 for 2 h and incubated overnight at 4°C with rabbit anti-Iba-1 and goat anti-Arg1 or with rabbit anti-CD8 antibodies. Next, sections were washed in PBS and incubated with corresponding secondary antibodies for 2 h at room temperature. All antibodies were diluted in 0.1% Triton X-100/PBS solution containing 3% donkey serum. Nuclei were counterstained with DAPI (1 µg/mL). Images were obtained using the Olympus microscope (Fluoview, FV10i). For reagent specifications, catalogue numbers, and concentrations, see the Supplementary Table 1. To quantify the tumor size, sections were stained with toluidine blue, and images were acquired using a Leica DM4000B microscope (Leica Microsystems, Wetzlar, Germany). Tumor areas were measured using ImageJ software (NIH, Bethesda, MD, USA) on every sixth brain slice, and tumor volumes were calculated as previously described ([26]).
On day 28 after GL261 tdTomato^+luc^+ cell implantation mice were perfused transcardially with cold phosphate-buffered saline (PBS) to clear away blood cells from the brain. […] Next, cells were collected, washed with PBS and counted using NucleoCounter (Chemometec, Denmark). […]
All antibodies were titrated prior to staining to establish the amount yielding the best stain index. Data were acquired using a BD LSR Fortessa Analyzer cytometer and analyzed with FlowJo software (v. 10.5.3, FlowJo LLC, BD). Gates were set based on FMO (fluorescence minus one) controls and back-gating analysis. […]

ARG1/2 = system: ARG1/2; set-up: method as in PMID 31278254; details: cited from earlier work
human and murine T cells = system: human and murine T cells; set-up: method as in PMID 31278254; details: cited from earlier work
non-CNS tumor models = details: cited from earlier work

Compound: CN(C)C[C@@H]1CC[C@@H](CCB(O)O)C[C@]1(N)C(=O)O [OAT-1746]
- arginine concentration in the blood plasma [1]: increase of arginine concentration
- arginine concentration in the brain [1]: increase of arginine concentration
- animals that developed tumors at day 14 ([2]; bioluminescence, day 14): 5 out of 8
- tumor growth (tumor volume on brain sections) ([2]; day 21, OAT-1746 50 mg/kg oral twice a day, anti-PD-1 2.5 mg/kg i.p. days 8, 10, 12, 14): did not reduce the tumor growth
- glioma growth (bioluminescence imaging) ([2]; days 14, 21, 28 post-implantation): did not show any effect on the tumor volume
- percentage of microglia (CD11b+CD45low) and blood-derived macrophages (CD11b+CD45high) ([3]; flow cytometry, day 28): did not change
- accumulation of CD8+ cells ([3]; immunohistochemistry, day 21): did not affect
- accumulation of Iba1+ and Arg1+ cells in gliomas ([3]; immunohistochemistry, day 21): did not change
- inhibition of ARG1/2 (ARG1/2): low nanomolar concentrations
- ARG1-inhibited proliferation of human and murine T cells (human and murine T cells): reversed
- antitumor efficacy in non-CNS tumor models (non-CNS tumor models): significant antitumor efficacy
- toxicity in experimental animals (non-CNS tumor models; multiple oral dosing, mono- or combinatorial therapies, other tumor models): no toxicity
